Measurements: patent US20230257351A1, “SUBSTITUTED N-[…] HAVING P2X4 RECEPTOR ANTAGONISTIC ACTIVITY” (Bayer Aktiengesellschaft, priority 2020, published 2023)

Biological target: T1, human P2X4 (Homo sapiens, UniProt Q99571)
T1 construct: expressed in transfected cells
T1 sequence (Q99571 1-388): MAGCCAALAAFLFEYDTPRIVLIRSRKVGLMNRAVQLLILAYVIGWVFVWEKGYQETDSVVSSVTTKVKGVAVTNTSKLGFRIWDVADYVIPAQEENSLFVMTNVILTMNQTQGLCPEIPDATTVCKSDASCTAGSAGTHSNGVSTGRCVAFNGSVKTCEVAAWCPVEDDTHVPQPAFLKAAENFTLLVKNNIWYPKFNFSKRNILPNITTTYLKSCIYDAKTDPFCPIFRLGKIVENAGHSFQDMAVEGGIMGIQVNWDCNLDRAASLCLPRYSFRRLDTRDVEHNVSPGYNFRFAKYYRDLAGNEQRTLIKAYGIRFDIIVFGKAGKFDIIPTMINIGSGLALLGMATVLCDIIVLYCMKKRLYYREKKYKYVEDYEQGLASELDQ
Assay: Human P2X4 HEK Cell FLIPR Assay
Assay type: cell-based
Details: HEK293 stably expressing human P2X4, agonist Bz-ATP 3 μM (EC80); for IC50: read-out: Human P2X4 HEK Cells (FLIPR Assay) avg IC50
Summary of the method: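 Compounds were preincubated 30 min at room temperature on Fluo8-AM-loaded HEK293 cells stably expressing human P2X4. The response was the calcium fluorescence rise on Bz-ATP addition.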

Row | Human P2X4 HEK Cells (FLIPR Assay) avg Efficacy | IC50 | SMILES
1 | 96% | 407 nM | CC(=O)N(c1cccc(F)c1)c1cc(NC(=O)Cc2c(Cl)cccc2Cl)cnn1 [Example 194, N-{5-[2-(2,6-dichlorophenyl)acetamido]pyridazin-3-yl}-N-(3-fluorophenyl)acetamide]
2 | 95% | 486 nM | CC(=O)N(c1cccc(F)c1)c1cc(NC(=O)Cc2cccc(F)c2Cl)cnn1 [Example 195, N-{5-[2-(2-chloro-3-fluorophenyl)acetamido]pyridazin-3-yl}-N-(3-fluorophenyl)acetamide]
3 | 94% | 546 nM | CC(=O)N(c1cccc(F)c1)c1cc(NC(=O)Cc2ccccc2Cl)cnn1 [Example 196, N-{5-[2-(2-chlorophenyl)acetamido]pyridazin-3-yl}-N-(3-fluorophenyl)acetamide]
4 | 93% | 674 nM | CC(=O)N(c1cccc(F)c1)c1cc(NC(=O)Cc2c(F)cccc2Cl)cnn1 [Example 197, N-{5-[2-(2-chloro-6-fluorophenyl)acetamido]pyridazin-3-yl}-N-(3-fluorophenyl)acetamide]
5 | 96% | 943 nM | CC(=O)N(c1cccc(F)c1)c1cc(NC(=O)Cc2ccc(F)cc2Cl)cnn1 [Example 198, N-{5-[2-(2-chloro-4-fluorophenyl)acetamido]pyridazin-3-yl}-N-(3-fluorophenyl)acetamide]
6 | 86% | 447 nM | CC(=O)N(c1ccc(F)c(F)c1)c1cc(NC(=O)Cc2ccccc2Cl)cnn1 [Example 199, N-{5-[2-(2-chlorophenyl)acetamido]pyridazin-3-yl}-N-(3,4-difluorophenyl)acetamide]
7 | 91% | 465 nM | CC(=O)N(c1ccc(F)c(F)c1)c1cc(NC(=O)Cc2c(Cl)cccc2Cl)cnn1 [Example 200, N-{5-[2-(2,6-dichlorophenyl)acetamido]pyridazin-3-yl}-N-(3,4-difluorophenyl)acetamide]
8 | 89% | 510 nM | CC(=O)N(c1ccc(F)c(F)c1)c1cc(NC(=O)Cc2cccc(F)c2Cl)cnn1 [Example 201, N-{5-[2-(2-chloro-3-fluorophenyl)acetamido]pyridazin-3-yl}-N-(3,4-difluorophenyl)acetamide]
9 | 94% | 557 nM | CC(=O)N(c1ccc(F)c(F)c1)c1cc(NC(=O)Cc2ccc(F)cc2Cl)cnn1 [Example 202, N-{5-[2-(2-chloro-4-fluorophenyl)acetamido]pyridazin-3-yl}-N-(3,4-difluorophenyl)acetamide]
10 | 86% | 737 nM | CC(=O)N(c1ccc(F)c(F)c1)c1cc(NC(=O)Cc2c(F)cccc2Cl)cnn1 [Example 203, N-{5-[2-(2-chloro-6-fluorophenyl)acetamido]pyridazin-3-yl}-N-(3,4-difluorophenyl)acetamide]
11 | 95% | 383 nM | CC(=O)N(c1cc(F)cc(F)c1)c1cc(NC(=O)Cc2c(Cl)cccc2Cl)cnn1 [Example 204, N-{5-[2-(2,6-dichlorophenyl)acetamido]pyridazin-3-yl}-N-(3,5-difluorophenyl)acetamide]
12 | 93% | 433 nM | CC(=O)N(c1cc(F)cc(F)c1)c1cc(NC(=O)Cc2ccccc2Cl)cnn1 [Example 205, N-{5-[2-(2-chlorophenyl)acetamido]pyridazin-3-yl}-N-(3,5-difluorophenyl)acetamide]
13 | 93% | 449 nM | CC(=O)N(c1cc(F)cc(F)c1)c1cc(NC(=O)Cc2cccc(F)c2Cl)cnn1 [Example 206, N-{5-[2-(2-chloro-3-fluorophenyl)acetamido]pyridazin-3-yl}-N-(3,5-difluorophenyl)acetamide]
